Laboratory results taken from paper PMC7432509, “Investigating the Product Profiles and Structural Relationships of New Levansucrases with Conventional and Non-Conventional Substrates” (International Journal of Molecular Sciences, 2020).

Tests used:
Format in all cases: biochemical
[1] = target: T1, LS from Beijerinckia indica subsp. indica (Beijerinckia indica, UniProt B2IF78); assay: HPAEC-PAD, bioconversion of raffinose; settings: raffinose as sole fructosyl donor and acceptor (0.8 M in methods, 0.9 M in figure legend)
T1 construct: gene Bind_2021; pET22b(+), E. coli BL21(DE3), HisTrap purified
T1 sequence (B2IF78 29-534): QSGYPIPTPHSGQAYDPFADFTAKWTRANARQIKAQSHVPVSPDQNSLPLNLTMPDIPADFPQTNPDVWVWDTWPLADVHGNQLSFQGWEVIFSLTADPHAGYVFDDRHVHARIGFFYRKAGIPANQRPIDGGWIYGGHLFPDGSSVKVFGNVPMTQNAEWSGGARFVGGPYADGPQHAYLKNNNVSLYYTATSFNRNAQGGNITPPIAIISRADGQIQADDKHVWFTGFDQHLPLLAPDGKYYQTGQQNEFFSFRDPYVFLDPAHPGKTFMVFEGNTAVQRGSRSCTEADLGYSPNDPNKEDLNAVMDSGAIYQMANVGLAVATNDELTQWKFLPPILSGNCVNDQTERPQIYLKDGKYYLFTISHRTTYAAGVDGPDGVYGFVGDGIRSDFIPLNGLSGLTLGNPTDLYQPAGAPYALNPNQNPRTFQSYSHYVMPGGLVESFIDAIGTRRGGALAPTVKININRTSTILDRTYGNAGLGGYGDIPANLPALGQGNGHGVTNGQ

[2] = target: T2, LS from Paraburkholderia graminis (Paraburkholderia graminis, UniProt B1G3X6); assay: HPAEC-PAD, bioconversion of raffinose; settings: raffinose as sole fructosyl donor and acceptor (0.8 M in methods, 0.9 M in figure legend)
T2 construct: gene BgramDRAFT_4066; pET22b(+), E. coli BL21(DE3), HisTrap purified
T2 sequence (B1G3X6 36-529): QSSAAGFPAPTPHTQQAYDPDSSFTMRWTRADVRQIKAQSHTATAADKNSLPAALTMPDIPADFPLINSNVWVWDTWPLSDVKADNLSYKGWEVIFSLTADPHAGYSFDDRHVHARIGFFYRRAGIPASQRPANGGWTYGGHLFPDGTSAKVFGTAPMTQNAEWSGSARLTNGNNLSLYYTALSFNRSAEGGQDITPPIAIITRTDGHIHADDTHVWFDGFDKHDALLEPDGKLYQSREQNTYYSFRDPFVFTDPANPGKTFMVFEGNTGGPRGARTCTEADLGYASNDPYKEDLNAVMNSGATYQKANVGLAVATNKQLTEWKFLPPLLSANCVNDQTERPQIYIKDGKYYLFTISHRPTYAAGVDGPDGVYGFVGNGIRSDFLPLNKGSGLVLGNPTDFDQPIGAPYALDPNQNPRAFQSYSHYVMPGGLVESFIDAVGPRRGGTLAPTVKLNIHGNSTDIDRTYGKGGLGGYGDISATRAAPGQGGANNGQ

[3] = target: T3, LS from Novosphingobium aromaticivorans (Novosphingobium aromaticivorans, UniProt Q2G754); assay: HPAEC-PAD, bioconversion of raffinose; settings: raffinose as sole fructosyl donor and acceptor (0.8 M in methods, 0.9 M in figure legend)
T3 construct: gene Saro_1879; pET22b(+), E. coli BL21(DE3), HisTrap purified
T3 sequence (Q2G754 1-377): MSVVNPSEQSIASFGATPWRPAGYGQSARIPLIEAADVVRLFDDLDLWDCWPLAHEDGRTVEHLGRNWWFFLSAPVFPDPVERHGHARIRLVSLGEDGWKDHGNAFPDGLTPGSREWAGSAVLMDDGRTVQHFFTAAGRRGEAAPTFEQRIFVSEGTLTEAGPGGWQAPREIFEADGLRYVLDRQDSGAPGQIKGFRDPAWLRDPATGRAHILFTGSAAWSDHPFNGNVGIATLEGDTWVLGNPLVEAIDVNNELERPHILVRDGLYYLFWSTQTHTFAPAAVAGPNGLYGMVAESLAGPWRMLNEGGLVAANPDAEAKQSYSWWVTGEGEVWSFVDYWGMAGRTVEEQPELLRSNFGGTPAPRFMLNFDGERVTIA

[4] = target: T4, LS from Gluconobacter oxydans (Gluconobacter oxydans, UniProt Q5FSK0); assay: HPAEC-PAD, bioconversion of raffinose; settings: raffinose as sole fructosyl donor and acceptor (0.8 M in methods, 0.9 M in figure legend)
T4 construct: gene GOX0873; pET22b(+), E. coli BL21(DE3), HisTrap purified
T4 sequence (Q5FSK0 1-436): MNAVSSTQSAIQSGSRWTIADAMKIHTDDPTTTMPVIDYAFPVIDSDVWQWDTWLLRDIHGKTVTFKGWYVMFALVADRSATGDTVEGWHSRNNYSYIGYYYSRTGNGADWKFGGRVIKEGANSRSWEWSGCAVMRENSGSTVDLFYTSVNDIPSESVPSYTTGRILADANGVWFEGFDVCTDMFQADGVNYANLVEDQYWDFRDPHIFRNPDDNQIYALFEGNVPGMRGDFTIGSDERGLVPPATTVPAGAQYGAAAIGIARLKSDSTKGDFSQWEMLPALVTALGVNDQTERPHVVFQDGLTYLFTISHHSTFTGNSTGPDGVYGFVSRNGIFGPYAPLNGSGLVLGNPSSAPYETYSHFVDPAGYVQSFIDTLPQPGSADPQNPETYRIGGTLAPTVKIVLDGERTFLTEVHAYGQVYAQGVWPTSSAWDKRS

[5] = target: T5, LS from Vibrio natriegens (Vibrio natriegens, UniProt A0AAN0Y6N0); assay: HPAEC-PAD, bioconversion of raffinose; settings: raffinose as sole fructosyl donor and acceptor (0.8 M in methods, 0.9 M in figure legend)
T5 construct: gene BA890_19745; pET22b(+), E. coli BL21(DE3), HisTrap purified
T5 sequence (A0AAN0Y6N0 28-523): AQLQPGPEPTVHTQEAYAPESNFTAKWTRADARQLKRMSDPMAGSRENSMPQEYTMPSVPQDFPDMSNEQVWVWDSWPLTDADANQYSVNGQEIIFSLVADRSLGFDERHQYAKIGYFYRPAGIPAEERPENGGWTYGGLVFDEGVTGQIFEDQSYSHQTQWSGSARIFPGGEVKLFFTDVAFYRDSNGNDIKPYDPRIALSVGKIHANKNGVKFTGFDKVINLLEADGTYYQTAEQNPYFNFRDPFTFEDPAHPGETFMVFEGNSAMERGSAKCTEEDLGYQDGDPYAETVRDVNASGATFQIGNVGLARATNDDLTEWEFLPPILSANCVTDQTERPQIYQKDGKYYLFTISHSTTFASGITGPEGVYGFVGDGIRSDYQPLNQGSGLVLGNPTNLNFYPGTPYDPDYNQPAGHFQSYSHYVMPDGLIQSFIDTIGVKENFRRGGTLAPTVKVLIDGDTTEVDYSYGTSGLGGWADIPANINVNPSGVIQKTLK

[6] = target: T2, LS from Paraburkholderia graminis; assay: HPAEC-PAD time course of sucrose conversion; settings: 0.8 M sucrose, 30 °C, 5-7 U/mL; fructosyl donor and acceptor
[7] = target: T4, LS from Gluconobacter oxydans; assay: HPAEC-PAD time course of sucrose conversion; settings: 0.8 M sucrose, 30 °C, 5-7 U/mL; fructosyl donor and acceptor

SMILES | HPAEC-PAD, bioconversion of raffinose [1] | HPAEC-PAD, bioconversion of raffinose [2] | HPAEC-PAD, bioconversion of raffinose [3] | HPAEC-PAD, bioconversion of raffinose [4] | HPAEC-PAD, bioconversion of raffinose [5] | HPAEC-PAD time course of sucrose conversion [6] | HPAEC-PAD time course of sucrose conversion [7]
OC[C@H]1O[C@H](OC[C@H]2O[C@H](O[C@]3(CO)O[C@H](CO)[C@@H](O)[C@@H]3O)[C@H](O)[C@@H](O)[C@@H]2O)[C@H](O)[C@@H](O)[C@H]1O [raffinose] | LS from V. natriegens, N. aromaticivorans, and B. indica subsp. indica preferred raffinose as the substrate | LS from P. graminis catalyzed the synthesis of multiple oligosaccharides using raffinose | LS from V. natriegens, N. aromaticivorans, and B. indica subsp. indica preferred raffinose as the substrate | All LSs were able to produce a few different trisaccharides | LS from V. natriegens, N. aromaticivorans, and B. indica subsp. indica preferred raffinose as the substrate |  | 
OC[C@H]1O[C@@](CO)(O[C@H]2O[C@H](CO)[C@@H](O)[C@H](O)[C@H]2O)[C@@H](O)[C@@H]1O [sucrose] |  |  |  |  |  | The LS from P. graminis used the highest amount of sucrose amongst all the enzymes tested | The LSs from G. oxydans and P. graminis almost depleted the sucrose
